# Measured values from the OligoGym collection.
# Values joined by “and” are separate entries in the source; they are usually repeats but may differ in a detail not shown here. Identical values can stand only once. After the bases stand the sugars from the 5' end (letter, count) and the backbone: PS all phosphorothioate, else s phosphorothioate and o phosphodiester by linkage. Methylation of C is not given here. e = 2'-O-(2-methoxyethyl) (MOE); k = constrained ethyl (cEt); d = 2'-deoxy (DNA)
# Molecular target: IRF4
# Settings: ASO
Sequence,"target mRNA inhibition (MM.1R, 1 µM)","target mRNA inhibition (SK-MEL-28, 4 µM) [%]",further results
"CAGTGATGTCAGGTTT (sugars kkkddddddddkekek, PS)",56%,–,"target mRNA inhibition (MM.1R, 0.074 µM): 19%; target mRNA inhibition (MM.1R, 0.222 µM): 40%; target mRNA inhibition (MM.1R, 0.666 µM): 56%; target mRNA inhibition (MM.1R, 2 µM): 74%"
"GAGCAAAGCAAGTGTC (sugars k3 d10 k3, PS)",–,42,–
"GGGTTAAAGGAGTGCA (sugars k3 d10 k3, PS)",0%,–,–
"ACTGTCCACTGAGTAC (sugars k3 d10 k3, PS)",–,61,–
"GGCTGAGATAGGAAGC (sugars k3 d10 k3, PS)",–,36,–
"AGCAGTGATGTCAGGT (sugars k3 d10 k3, PS)",84% and 68%,–,"target mRNA inhibition (MM.1R, 0.0625 µM): 1%; target mRNA inhibition (MM.1R, 0.25 µM): 23%; target mRNA inhibition (MM.1R, 4 µM): 92%"
"TGCCACAACTCTCGCC (sugars k3 d10 k3, PS)",–,31,–
"AACTATCTTATTCCTC (sugars k3 d10 k3, PS)",–,30,–
"CCCCAAAATACTTTGC (sugars k3 d10 k3, PS)",–,100,–
"CAGTGATGTCAGGTTT (sugars kkdddddddddkdkdk, PS)",47%,–,"target mRNA inhibition (MM.1R, 0.074 µM): 5%; target mRNA inhibition (MM.1R, 0.222 µM): 23%; target mRNA inhibition (MM.1R, 0.666 µM): 40%; target mRNA inhibition (MM.1R, 2 µM): 67%"
"TGGTTGGCTGGTCTTT (sugars k3 d10 k3, PS)",88% and 69%,–,"target mRNA inhibition (MM.1R, 0.0625 µM): 6%; target mRNA inhibition (MM.1R, 0.25 µM): 40%; target mRNA inhibition (MM.1R, 4 µM): 89%"
"AGCTGATGGAGAAACG (sugars k3 d10 k3, PS)",–,10,–
"ACGTGTGCTTGCCAAG (sugars kkdddddddddkdkdk, PS)",75% and 66% and 56%,–,"target mRNA inhibition (MM.1R, 0.0625 µM): 15%; target mRNA inhibition (MM.1R, 0.25 µM): 43%; target mRNA inhibition (MM.1R, 4 µM): 77%"
"ATAACCGGTAGAGTGA (sugars k3 d10 k3, PS)",–,50,–
"AGTTTGTGAAGCATCC (sugars k3 d10 k3, PS)",–,69,–
"AATTCCTCCACTACCA (sugars k3 d10 k3, PS)",-41%,–,–
"AGTGACTTGCATCCAT (sugars kkdddddddddkdkdk, PS)",22%,–,–
"TAACACGGTGTTGACA (sugars k3 d10 k3, PS)",–,35,–
"GACACTTTTAGAGAGG (sugars kdddddddddkekeke, PS)",9%,–,–
"CAGAAACCCTCATCAC (sugars k3 d10 k3, PS)",–,4,–
"CCCTACCTTTTTTGGC (sugars k3 d10 k3, PS)",-7%,–,–
"GGAACTCATAGGTGTA (sugars k3 d10 k3, PS)",53% and 65%,–,"target mRNA inhibition (MM.1R, 0.0625 µM): 11% and 32%; target mRNA inhibition (MM.1R, 0.25 µM): 26% and 42%; target mRNA inhibition (MM.1R, 4 µM): 75% and 80%"
"GCATTTTATCATCCGA (sugars kkdddddddddkdkdk, PS)",16%,–,–
"CCGGAGGCCGCCGTGA (sugars k3 d10 k3, PS)",–,13,–
"AGCTACGCAATCTTCT (sugars k3 d10 k3, PS)",–,47,–

Sequence,"target mRNA inhibition (MM.1R, 1 µM)","target mRNA inhibition (SK-MEL-28, 4 µM) [%]",further results
"TTACCGATGCTTCAAG (sugars k3 d10 k3, PS)",16% and 19%,–,–
"TTGCAAGCTATATTAA (sugars k3 d10 k3, PS)",–,34,–
"GATGTATACATCACTG (sugars k3 d10 k3, PS)",–,70,–
"TACTAACTGGCTTCCA (sugars k3 d10 k3, PS)",–,28,–
"TTCATGTAAAGTCTGC (sugars kkdddddddddkekek, PS)",10% and 12%,–,–
"GTTACTAATTCCATAG (sugars k3 d10 k3, PS)",–,49,–
"CCCCAGTCTACTGCTG (sugars k3 d10 k3, PS)",–,47,–
"AAACACAGTCTGCTGC (sugars k3 d10 k3, PS)",–,35,–
"ATGTAAAGTCTGCTGA (sugars k3 d10 k3, PS)",20%,–,–
"GAGAGACGAAAACAGC (sugars k3 d10 k3, PS)",5%,–,–
"ATTATATACTGGTTGG (sugars kddddddddddkekek, PS)",22%,–,–
"GAAGTTTACTAACTGG (sugars k3 d10 k3, PS)",–,57,–
"GAATTCCAAACCTTAA (sugars k3 d10 k3, PS)",4%,–,–
"TGGCTCATGGACATCT (sugars k3 d10 k3, PS)",–,32,–
"GACACTTTTAGAGAGG (sugars kkdddddddddkdkdk, PS)",14%,–,–
"GGCAAGTTTTCTCTGT (sugars k3 d10 k3, PS)",–,36,–
"AGCTCATCTGCCAATC (sugars k3 d10 k3, PS)",–,33,–
"CTCCTATAACTTCTCC (sugars k3 d10 k3, PS)",–,33,–
"TGGGAATCCTTAATTA (sugars k3 d10 k3, PS)",–,12,–
"CACTGAACCATGTTCC (sugars k3 d10 k3, PS)",–,61,–
"GACTTATTTGTGGCTC (sugars k3 d10 k3, PS)",20%,–,–
"TAGGTCATACCCTGGA (sugars k3 d10 k3, PS)",–,72,–
"GCTTTTTCAAACACTA (sugars k3 d10 k3, PS)",–,68,–
"GAGCAGTAAACGCAAG (sugars k3 d10 k3, PS)",–,54,–
"AACTCTGAGTAGACTT (sugars k3 d10 k3, PS)",–,28,–

Sequence,"target mRNA inhibition (MM.1R, 1 µM)","target mRNA inhibition (SK-MEL-28, 4 µM) [%]",further results
"ACCAAAAGTACCACAG (sugars k3 d10 k3, PS)",-8%,–,–
"GGCTAGGCCACCGCAC (sugars k3 d10 k3, PS)",–,28,–
"GTTCCTGTCACCTGGC (sugars k4 d8 k4, PS)",–,12,–
"GCCTTAATGGTGATTT (sugars k3 d10 k3, PS)",–,26,–
"ACACGCCCGACCCTCC (sugars k3 d10 k3, PS)",4%,–,–
"AGGCACTTACTAGGTG (sugars k3 d10 k3, PS)",–,54,–
"TGTTACCGATGCTTCA (sugars kdddddddddkekeke, PS)",10% and 13%,–,–
"GACTTAAGCTAAACTC (sugars k3 d10 k3, PS)",–,58,–
"CATTAGCAATTAGCTC (sugars k3 d10 k3, PS)",-37%,–,–
"ACCCACACAAGTCTTA (sugars k3 d10 k3, PS)",–,-4,–
"GGAGGAGGGTTGGCCT (sugars k3 d10 k3, PS)",–,1,–
"CTCCAAAGCATAGAGT (sugars k3 d10 k3, PS)",–,23,–
"GAGTCACCTGGAATCT (sugars k3 d10 k3, PS)",–,43,–
"GAGACCTACAAAATGC (sugars k3 d10 k3, PS)",–,11,–
"ATAGTTAAGTACTTGG (sugars k3 d10 k3, PS)",–,48,–
"GAAGGCCTGAGTTACC (sugars k3 d10 k3, PS)",29%,–,–
"CAAGAAGGATGGGACC (sugars k3 d10 k3, PS)",–,25,–
"CTTAGTCAGAATCTGT (sugars k3 d10 k3, PS)",1%,–,–
"CACCAATGGCAGCACC (sugars k3 d10 k3, PS)",16%,–,–
"GTATAGTTCTCAACCA (sugars k3 d10 k3, PS)",–,47,–
"ATTAAAGAGCGCATTT (sugars k3 d10 k3, PS)",–,13,–
"ATATGGCTAAACCTGG (sugars k3 d10 k3, PS)",18%,–,–
"AGCATTTTATCATCCG (sugars e1 k2 d9 k2 e2, PS)",43%,–,–
"GAGCAATGAACGGAAG (sugars k3 d10 k3, PS)",–,72,–
"ACTGCTTGAGGTTTTC (sugars kkdddddddddkdkdk, PS)",19%,–,–

Sequence,"target mRNA inhibition (MM.1R, 1 µM)","target mRNA inhibition (SK-MEL-28, 4 µM) [%]",further results
"TGAACCCTTCATCAGA (sugars k3 d10 k3, PS)",–,48,–
"AAGTTCATGTAAAGTC (sugars kkddddddddddkeke, PS)",28% and 20%,–,–
"AGAATAAACACCCCTT (sugars k3 d10 k3, PS)",–,74,–
"ACGGAAGTTTACACTG (sugars kkdddddddddkekek, PS)",21%,–,–
"AGCCAGAGGTTCGCTG (sugars k3 d10 k3, PS)",–,25,–
"TATCAGGATCTCAAGG (sugars k3 d10 k3, PS)",–,6,–
"CAAGCAGTGATGTCAG (sugars k2 d9 e3 k2, PS)",15% and 8%,–,–
"GTCAGCTCCATCCTGC (sugars k3 d10 k3, PS)",–,52,–
"AAGCTAAACTCCTAAG (sugars k3 d10 k3, PS)",–,15,–
"CAGGCGGACACGCCCG (sugars k3 d10 k3, PS)",-5%,–,–
"GGAGATCCTTTTTATT (sugars k3 d10 k3, PS)",–,32,–
"GTTGCCGAGATATAAA (sugars k3 d10 k3, PS)",13%,–,–
"CCGCGAAGGCTCCTAC (sugars k3 d10 k3, PS)",–,14,–
"AATGGATAGTTTCTCA (sugars k3 d10 k3, PS)",21% and 36%,63,"target mRNA inhibition (MM.1R, 0.0625 µM): -2% and -14%; target mRNA inhibition (MM.1R, 0.074 µM): 11%; target mRNA inhibition (MM.1R, 0.222 µM): 8%; target mRNA inhibition (MM.1R, 0.25 µM): 6% and 5%; target mRNA inhibition (MM.1R, 0.666 µM): 23%; target mRNA inhibition (MM.1R, 2 µM): 45%; target mRNA inhibition (MM.1R, 4 µM): 45% and 50%"
"AGGAACTGACCTAACT (sugars k3 d10 k3, PS)",–,31,–
"GTGTTCCAGGAGATAT (sugars k3 d10 k3, PS)",30%,–,–
"CAGTGATGTCAGGTTT (sugars kkdddddddddkekek, PS)",64%,–,"target mRNA inhibition (MM.1R, 0.074 µM): 8%; target mRNA inhibition (MM.1R, 0.222 µM): 28%; target mRNA inhibition (MM.1R, 0.666 µM): 53%; target mRNA inhibition (MM.1R, 2 µM): 77%"
"AGCATAGCATTATCTA (sugars k3 d10 k3, PS)",–,34,–
"GAATCTTGGCAGGGAG (sugars k3 d10 k3, PS)",0%,–,–
"GTAGGTAAGATCTCCA (sugars k3 d10 k3, PS)",22%,–,–
"GGCCACCGCACGCAAG (sugars k3 d10 k3, PS)",-24%,–,–
"GTCGCGCAAGTCTACA (sugars k3 d10 k3, PS)",4% and 16%,–,–
"TGTGCTTGCCAAGCCT (sugars kkdddddddddekeke, PS)",21% and 1%,–,–
